The text below walks through data of US8461389B2, “Psycho-pharmaceuticals” (University College Dublin, National University of Ireland, …, priority 2008, dated 2013).

Assay [1] relates to GDNF (Glial cell derived neurotrophic factor). In words: GDNF levels in brain regions by ELISA after sub-chronic administration. In kind it is in vivo, mice. Conditions: sub-chronic 7 day treatment, FIG. 9D. The procedure:
(§1) Neurotrophic factor concentration was determined by using an ELISA purchased from Promega Inc;
The Experimental protocol employed in the behavioural evaluation of Captodiamine is set out as follows: Three separate cohorts of C57B16 mice were employed in the behavioural evaluation of Captodiamine (see FIG. 7). Cohort 1 was used to evaluate the drug effect on prepulse inhibition, spatial learning, open-field and novel object recognition. Cohort 2 was used to evaluate drug effects on the forced swim test and the elevated X-maze. The behavioural tests were administered in sequence as per day number indicated in the bar of FIG. 7. The drug was administered by the intraperitoneal route and on the day of training the drug was administered after the behavioural analysis. […]
The Structure (FIG. 9A), receptor affinity (FIG. 9B), pharmacokinetics (FIG. 9C) and growth factor modulation (FIG. 9D) of Captodiamine are provided. […] Blood levels of Captodiamine were determined by GC mass spectroscopy. […] Values were analysed using a Student t-test and those with a p value<0.05 were accepted as significant and are indicated with an asterisk.

Assay [2] has as its system C57B16 mice. The assay is described as follows: Novel object recognition (NOR) test. The format is in vivo. The text has this: Before training the animals with objects, they are first allowed to acclimatize to the testing environment, a white Perspex box (30 cm by 20 cm) equipped with an overhead camera. After an acclimation session, the animals are ready for the training stage. This stage involves the introduction of two identical objects (Lego Duplo) to the environment before allowing the rodent to explore for a period of five minutes: Following the training period, the rodent is removed from the environment for a delay period which can range from 5 minutes to 24 hours, depending on the type of memory being tested. After the delay, the rodent is returned to the arena, where one of the original objects has been replaced by a new one, such as a glass container.
The amount of time that the rodents spends exploring each object can be calculated by hand or by using a computer program receiving input from the overhead camera. The literature describes a variety of methods for analyzing results. One technique involves dividing the time spent exploring the novel object by the total time spent exploring either object, yielding % novel exploration. An alternative technique is used to calculate the discrimination ratio, defined as the difference in exploration time for the objects divided by total exploration time. The method of analysis should be suited to the specific experimental setup. […]

Assay [3] has as its system C57B16 mice. The assay is described as follows: Water maze spatial learning. In kind it is in vivo. The settings on record: i.p. once daily for 7 days; FIG. 6. How it is done:
The test apparatus consists of a large circular pool (1 m diameter, 80 cm high, temperature 26° C.) with a platform (11 cm diameter) submerged 1.5 cm below the surface. Both the pool and the platform were constructed of black polyvinyl plastic, which offered no intra-maze cues. The experimental room contained several extra-maze visual cues. During training the platform was hidden in the same quadrant 30 cm away from the edge of the maze. There were five trials, each of them beginning with the rat facing the wall of the maze in one of three different locations. The time taken for the rat to find the platform within a 90 s period was recorded. Probe trials where the platform was removed from the maze and the time the animal spent in the target quadrant were also performed. […]
Finally, drugs inducing neurobehavioural profile are evaluated in the water maze spatial learning paradigm, a robust task of information acquisition and consolidation—a measure of pro-cognitive action. […]
The influence of Captodiamine on open-field behaviour (FIG. 3), novel object recognition (FIG. 8), forced swim test (FIGS. 10A and 10B) and water maze spatial learning (FIG. 6). […] Values were analysed using a two way ANOVA and Student t-test and those with a p values<0.05 were accepted as significant and where appropriate are indicated with an asterisk.

Assay [4] deals with BDNF (Brain-derived neurotrophic factor). In words: BDNF levels in brain regions by ELISA after sub-chronic administration. The format is in vivo, mice. The settings on record: sub-chronic 7 day treatment, FIG. 9D. The procedure:
as §1
The Experimental protocol employed in the behavioural evaluation of Captodiamine is set out as follows: Three separate cohorts of C57B16 mice were employed in the behavioural evaluation of Captodiamine (see FIG. 7). Cohort 1 was used to evaluate the drug effect on prepulse inhibition, spatial learning, open-field and novel object recognition. Cohort 2 was used to evaluate drug effects on the forced swim test and the elevated X-maze. The behavioural tests were administered in sequence as per day number indicated in the bar of FIG. 7. The drug was administered by the intraperitoneal route and on the day of training the drug was administered after the behavioural analysis. Cohort 3 was used for analysis of growth factor (GF) expression (such as, for example, Brain Derived Neurotrophic Factor (BDNF and Glial Derived Neurotrophic Factor (GDNF). The brains were removed immediately after sacrifice, the relevant brain areas dissected, homogenised and stored at −80° C. until analysis. Captodiamine/UCD-0620 was administered at doses of 3 and 5 mg/kg. The compound was administered once daily, via the intraperitoneal route, for 7 days prior to testing and the animals were drug-free at time of training.
The Structure (FIG. 9A), receptor affinity (FIG. 9B), pharmacokinetics (FIG. 9C) and growth factor modulation (FIG. 9D) of Captodiamine are provided. Analysis of receptor affinities was performed by Novascreen™ and those displacing >20% of the natural ligand are indicated by the filled boxes. Blood levels of Captodiamine were determined by GC mass spectroscopy. In separate samples taken from a cannulated jugular at increasing time intervals following a single intraperitoneal injection of tha drug (5 mg/kg). Growth factor analysis was performed using tissue homogenates and ELISA assays specific for each growth factor (Promega). Values were analysed using a Student t-test and those with a p value<0.05 were accepted as significant and are indicated with an asterisk.

As to `CCCCSc1ccc(C(SCCN(C)C)c2ccccc2)cc1` (centres unmarked) [Captodiamine, 2-[(4-butylsulfanylphenyl)-phenyl-methyl]sulfanyl-N,N-dimethyl-ethanamin], in assay [1], the “GDNF expression levels, hypothalamus” value was “but not in either the hippocampus or the hypothalamus” and the “GDNF expression levels, prefrontal cortex” value is “significantly decreased”. For the same compound, in the assay with C57B16 mice [2] (3 mg/kg dose, one-tailed t-test), the “time investigating objects during the training phase, Novel Object Recognition Task” value is reported as “significantly longer investigating objects”. In the assay on C57B16 mice [2] (FIG. 8 right hand panel), the “time exploring objects in training (day 1) and testing (day 2) phases, NOR” value is “more time exploring objects”. Moreover, the “water maze spatial learning task performance” value in the assay with C57B16 mice [3] is “significant pro-cognitive action”. In assay [4], the “BDNF expression levels, hippocampus” value is reported as “no effect”; the “BDNF expression levels, hypothalamus” value is recorded as “significantly increased”; the “BDNF expression levels, prefrontal cortex” value is “no effect”.
